Reference: ChEMBL document CHEMBL4507295 (2021)

How the values were obtained:
[1] = target: voltage-gated sodium channel, site 2 (Rattus norvegicus, UniProt F1LQQ7+O08562+O88420+O88457+P04774+P04775+P08104+P15389+P15390+Q62968); test: Inhibition of Sodium Channel, Site 2 at 10 µM in the Eurofins-Panlabs radioligand binding assay (Eurofins_assay_279510); assay type: protein assay; design: ligand concentration 5 nM, non-specific ligand with concentration 100 µM Veratridine, incubation time 60 min, incubation temperature 37 °C; settings: male, Wistar, rat whole brain (except cerebellum) membranes, probe [3H] Batrachotoxinin (radioligand, 5 nM), compound concentration 10 uM
[2] = target: T1, 5-hydroxytryptamine receptor 2C (Homo sapiens) (UniProt P28335); settings: Compound concentration 10.0 uM
T1 sequence (whole entry): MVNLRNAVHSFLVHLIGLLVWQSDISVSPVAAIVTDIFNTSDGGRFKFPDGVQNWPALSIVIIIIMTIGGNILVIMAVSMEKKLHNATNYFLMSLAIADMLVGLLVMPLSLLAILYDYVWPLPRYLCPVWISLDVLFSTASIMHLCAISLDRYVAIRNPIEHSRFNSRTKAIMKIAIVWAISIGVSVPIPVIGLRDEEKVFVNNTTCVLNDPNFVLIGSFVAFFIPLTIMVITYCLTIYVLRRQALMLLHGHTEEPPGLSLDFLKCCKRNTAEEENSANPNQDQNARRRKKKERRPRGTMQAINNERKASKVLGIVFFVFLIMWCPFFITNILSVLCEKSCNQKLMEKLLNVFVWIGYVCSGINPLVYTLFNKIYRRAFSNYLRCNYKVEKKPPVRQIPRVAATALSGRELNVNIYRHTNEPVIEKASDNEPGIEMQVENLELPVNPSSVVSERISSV

[3] = target: Sodium-dependent noradrenaline transporter (Homo sapiens) (UniProt P23975); settings: Compound concentration 10.0 uM
[4] = target: Acetylcholinesterase (Homo sapiens) (UniProt P22303); settings: Compound concentration 10.0 uM
Homo sapiens [5] = organism: Homo sapiens; test: Inhibition of Nicotinic Acetylcholine at compound concentration of 10.0 uM in the Eurofins-Panlabs radioligand binding assay (Eurofins_assay_258590); assay type: protein-complex assay; settings: Compound concentration 10.0 uM
[6] = target: Peroxisome proliferator-activated receptor gamma (Homo sapiens) (UniProt P37231); test: PPARgamma Eurofins-Panlabs radioligand binding assay; design: ligand concentration 5 nM, non-specific ligand with concentration 0.5 µM L-797773, incubation time 18 h, incubation temperature 15 °C; settings: Compound concentration 10.0 uM
[7] = target: Epidermal growth factor receptor (Homo sapiens) (UniProt P00533); test: Inhibition of Epidermal Growth Factor (EGF) at 10 µM in the Eurofins-Panlabs radioligand binding assay (Eurofins_assay_225510); settings: Compound concentration 10.0 uM
Rattus norvegicus = organism: Rattus norvegicus; test: Adrenergic α2, Non-selective Eurofins-Panlabs radioligand binding assay; assay type: protein assay; settings: Compound concentration 10.0 uM
[8] = target: T2, Muscarinic acetylcholine receptor M1 (Homo sapiens) (UniProt P11229); settings: Compound concentration 10.0 uM
T2 sequence (whole entry): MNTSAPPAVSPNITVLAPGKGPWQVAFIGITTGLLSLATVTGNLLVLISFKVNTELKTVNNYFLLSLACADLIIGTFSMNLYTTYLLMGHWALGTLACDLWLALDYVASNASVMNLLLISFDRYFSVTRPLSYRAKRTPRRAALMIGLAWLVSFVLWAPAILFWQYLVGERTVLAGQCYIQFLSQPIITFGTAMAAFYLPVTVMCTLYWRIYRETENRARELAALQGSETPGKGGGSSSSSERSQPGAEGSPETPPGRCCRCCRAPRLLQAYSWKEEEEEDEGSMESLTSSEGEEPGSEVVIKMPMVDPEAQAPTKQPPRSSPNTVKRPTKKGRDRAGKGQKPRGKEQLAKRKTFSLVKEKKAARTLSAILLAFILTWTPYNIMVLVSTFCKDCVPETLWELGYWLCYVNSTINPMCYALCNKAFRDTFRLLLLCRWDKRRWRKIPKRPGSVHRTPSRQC

[9] = target: Insulin receptor (Homo sapiens) (UniProt P06213); test: Protein Tyrosine Kinase, Insulin Receptor Eurofins-Panlabs enzyme assay; design: substrate with concentration 10 µg/mL […], incubation time 60 min, incubation temperature 25 °C; settings: Compound concentration 10.0 uM
[10] = target: Histamine H2 receptor (Homo sapiens) (UniProt P25021); settings: Compound concentration 10.0 uM
[11] = target: Endothelin-converting enzyme 1 (Homo sapiens) (UniProt P42892); test: Peptidase, Endothelin Converting Enzyme-1 (ECE-1) Eurofins-Panlabs enzyme assay; settings: Compound concentration 10.0 uM
Homo sapiens [12] = organism: Homo sapiens; test: Protein Serine/Threonine Kinase, MAPK14 (p38α) Eurofins-Panlabs enzyme assay; design: substrate with concentration 10 µg/mL Myelin Basic Protein (MBP), incubation time 60 min, incubation temperature 25 °C; settings: Compound concentration 10.0 uM
[13] = target: Bombesin receptor (Rattus norvegicus) (UniProt P52500+P24053+Q8K418); test: Bombesin, Non-Selective Eurofins-Panlabs radioligand binding assay; assay type: protein assay; settings: Compound concentration 10.0 uM
Homo sapiens [14] = organism: Homo sapiens; test: Prostanoid, Thromboxane A2 (TP) Eurofins-Panlabs radioligand binding assay; design: ligand concentration 5 nM, non-specific ligand with concentration 1 µM SQ-29548, incubation time 30 min, incubation temperature 25 °C; settings: Compound concentration 10.0 uM
Caspase-7 (Homo sapiens) = Caspase-7 (Homo sapiens) (UniProt P55210); test: Peptidase, CASP7 (Caspase 7) Eurofins-Panlabs enzyme assay; settings: Compound concentration 10.0 uM
[15] = target: T3, Muscarinic acetylcholine receptor M5 (Homo sapiens) (UniProt P08912); test: Inhibition of Muscarinic M5 at 10 µM in the Eurofins-Panlabs radioligand binding assay (Eurofins_assay_253010); design: ligand concentration 0.8 nM; settings: Compound concentration 10.0 uM
T3 sequence (whole entry): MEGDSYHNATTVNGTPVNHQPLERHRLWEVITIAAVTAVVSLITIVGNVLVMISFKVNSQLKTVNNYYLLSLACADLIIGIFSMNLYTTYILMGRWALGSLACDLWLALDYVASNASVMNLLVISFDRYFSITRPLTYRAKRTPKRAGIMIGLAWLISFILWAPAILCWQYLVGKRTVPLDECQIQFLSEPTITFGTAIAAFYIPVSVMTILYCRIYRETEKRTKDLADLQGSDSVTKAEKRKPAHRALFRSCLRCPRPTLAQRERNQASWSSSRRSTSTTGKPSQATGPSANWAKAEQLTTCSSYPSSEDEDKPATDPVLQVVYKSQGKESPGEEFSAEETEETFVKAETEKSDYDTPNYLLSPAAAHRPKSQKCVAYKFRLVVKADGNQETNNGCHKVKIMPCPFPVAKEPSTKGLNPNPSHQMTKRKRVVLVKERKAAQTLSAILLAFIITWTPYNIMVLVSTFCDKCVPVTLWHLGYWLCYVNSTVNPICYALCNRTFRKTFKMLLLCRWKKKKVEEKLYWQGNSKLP

[16] = target: D(3) dopamine receptor (Homo sapiens) (UniProt P35462); settings: Compound concentration 10.0 uM
[17] = target: Delta-type opioid receptor (Homo sapiens) (UniProt P41143); test: Opiate delta (OP1, DOP) Eurofins-Panlabs radioligand binding assay; settings: Compound concentration 10.0 uM
[18] = target: C-C chemokine receptor type 1 (Homo sapiens) (UniProt P32246); test: Chemokine CCR1 Eurofins-Panlabs radioligand binding assay; settings: Compound concentration 10.0 uM
[19] = target: Galanin receptor type 1 (Homo sapiens) (UniProt P47211); test: Galanin GAL1 Eurofins-Panlabs radioligand binding assay; settings: Compound concentration 10.0 uM
[20] = target: Tyrosine-protein kinase Blk (Homo sapiens) (UniProt P51451); settings: Compound concentration 1000.0 nM
Chain of Tyrosine-protein kinase Blk (Homo sapiens) (P51451 2-505 limits assumed): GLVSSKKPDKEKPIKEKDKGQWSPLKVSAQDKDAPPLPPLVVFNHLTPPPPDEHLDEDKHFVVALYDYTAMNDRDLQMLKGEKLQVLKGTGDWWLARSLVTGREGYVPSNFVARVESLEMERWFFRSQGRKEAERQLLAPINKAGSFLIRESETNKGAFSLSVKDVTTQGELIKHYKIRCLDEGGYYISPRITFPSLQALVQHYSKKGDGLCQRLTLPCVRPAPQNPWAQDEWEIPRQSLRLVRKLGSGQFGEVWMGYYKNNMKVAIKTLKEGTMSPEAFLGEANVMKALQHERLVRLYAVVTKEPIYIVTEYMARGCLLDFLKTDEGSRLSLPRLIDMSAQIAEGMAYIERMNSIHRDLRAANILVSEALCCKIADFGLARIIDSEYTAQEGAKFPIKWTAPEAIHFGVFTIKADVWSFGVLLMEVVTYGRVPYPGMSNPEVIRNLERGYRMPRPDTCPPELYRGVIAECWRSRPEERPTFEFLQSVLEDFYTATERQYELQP

Chain of Delta-type opioid receptor (Homo sapiens) (P41143 whole entry): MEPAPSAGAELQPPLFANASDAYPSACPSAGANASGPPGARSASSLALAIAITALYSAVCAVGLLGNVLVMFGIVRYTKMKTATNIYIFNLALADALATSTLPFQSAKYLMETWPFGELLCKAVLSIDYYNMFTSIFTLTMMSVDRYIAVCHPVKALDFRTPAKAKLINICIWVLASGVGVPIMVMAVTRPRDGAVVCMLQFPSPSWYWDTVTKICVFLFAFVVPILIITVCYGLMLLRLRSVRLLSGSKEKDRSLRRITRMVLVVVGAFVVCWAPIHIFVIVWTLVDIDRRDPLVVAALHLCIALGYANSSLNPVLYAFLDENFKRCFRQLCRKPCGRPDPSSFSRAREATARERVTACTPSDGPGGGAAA
Chain of Histamine H2 receptor (Homo sapiens) (P25021 whole entry): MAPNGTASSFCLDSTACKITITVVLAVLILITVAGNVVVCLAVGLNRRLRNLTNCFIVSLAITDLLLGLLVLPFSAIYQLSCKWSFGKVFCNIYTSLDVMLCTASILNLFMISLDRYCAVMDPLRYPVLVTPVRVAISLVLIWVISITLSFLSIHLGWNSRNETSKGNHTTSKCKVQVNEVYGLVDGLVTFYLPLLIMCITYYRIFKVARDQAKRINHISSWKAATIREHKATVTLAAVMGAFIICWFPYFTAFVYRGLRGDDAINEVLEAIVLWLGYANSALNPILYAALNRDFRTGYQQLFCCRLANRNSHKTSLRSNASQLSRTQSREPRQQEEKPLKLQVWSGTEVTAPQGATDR
Chain of D(3) dopamine receptor (Homo sapiens) (P35462 whole entry): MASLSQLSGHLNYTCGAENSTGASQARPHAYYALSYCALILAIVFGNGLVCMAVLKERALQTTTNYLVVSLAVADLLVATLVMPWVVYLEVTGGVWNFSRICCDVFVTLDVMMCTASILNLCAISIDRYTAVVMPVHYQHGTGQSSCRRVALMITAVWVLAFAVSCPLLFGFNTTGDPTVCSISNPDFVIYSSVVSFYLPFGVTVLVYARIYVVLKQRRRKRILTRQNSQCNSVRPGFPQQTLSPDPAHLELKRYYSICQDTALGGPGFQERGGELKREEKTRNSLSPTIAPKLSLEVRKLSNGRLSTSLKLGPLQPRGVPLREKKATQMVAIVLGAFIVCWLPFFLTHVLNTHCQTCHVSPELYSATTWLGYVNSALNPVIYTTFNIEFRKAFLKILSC
Chain of Peroxisome proliferator-activated receptor gamma (Homo sapiens) (P37231 whole entry): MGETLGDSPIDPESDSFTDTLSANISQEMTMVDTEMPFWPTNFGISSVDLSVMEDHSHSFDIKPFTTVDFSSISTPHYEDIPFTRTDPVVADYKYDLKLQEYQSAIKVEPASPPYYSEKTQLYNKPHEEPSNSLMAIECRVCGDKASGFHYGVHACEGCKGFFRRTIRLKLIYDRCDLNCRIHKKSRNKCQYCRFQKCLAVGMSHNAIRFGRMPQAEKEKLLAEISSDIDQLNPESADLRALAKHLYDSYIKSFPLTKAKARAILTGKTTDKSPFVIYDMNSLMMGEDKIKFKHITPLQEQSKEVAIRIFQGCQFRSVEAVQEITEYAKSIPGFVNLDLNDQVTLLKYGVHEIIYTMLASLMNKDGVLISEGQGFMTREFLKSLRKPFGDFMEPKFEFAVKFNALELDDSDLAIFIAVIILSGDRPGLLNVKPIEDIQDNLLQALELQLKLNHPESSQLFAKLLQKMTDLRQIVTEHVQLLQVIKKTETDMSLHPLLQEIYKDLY
Chain of C-C chemokine receptor type 1 (Homo sapiens) (P32246 whole entry): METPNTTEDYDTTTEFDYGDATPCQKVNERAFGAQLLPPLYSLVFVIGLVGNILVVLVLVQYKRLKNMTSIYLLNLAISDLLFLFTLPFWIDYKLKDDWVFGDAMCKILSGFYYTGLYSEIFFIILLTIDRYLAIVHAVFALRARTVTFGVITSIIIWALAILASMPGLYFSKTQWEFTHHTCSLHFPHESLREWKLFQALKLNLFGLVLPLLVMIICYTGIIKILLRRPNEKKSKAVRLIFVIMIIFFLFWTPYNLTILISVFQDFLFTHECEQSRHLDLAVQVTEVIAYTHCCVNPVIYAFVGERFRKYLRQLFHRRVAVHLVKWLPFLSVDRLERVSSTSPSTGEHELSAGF
Chain of Epidermal growth factor receptor (Homo sapiens) (P00533 whole entry): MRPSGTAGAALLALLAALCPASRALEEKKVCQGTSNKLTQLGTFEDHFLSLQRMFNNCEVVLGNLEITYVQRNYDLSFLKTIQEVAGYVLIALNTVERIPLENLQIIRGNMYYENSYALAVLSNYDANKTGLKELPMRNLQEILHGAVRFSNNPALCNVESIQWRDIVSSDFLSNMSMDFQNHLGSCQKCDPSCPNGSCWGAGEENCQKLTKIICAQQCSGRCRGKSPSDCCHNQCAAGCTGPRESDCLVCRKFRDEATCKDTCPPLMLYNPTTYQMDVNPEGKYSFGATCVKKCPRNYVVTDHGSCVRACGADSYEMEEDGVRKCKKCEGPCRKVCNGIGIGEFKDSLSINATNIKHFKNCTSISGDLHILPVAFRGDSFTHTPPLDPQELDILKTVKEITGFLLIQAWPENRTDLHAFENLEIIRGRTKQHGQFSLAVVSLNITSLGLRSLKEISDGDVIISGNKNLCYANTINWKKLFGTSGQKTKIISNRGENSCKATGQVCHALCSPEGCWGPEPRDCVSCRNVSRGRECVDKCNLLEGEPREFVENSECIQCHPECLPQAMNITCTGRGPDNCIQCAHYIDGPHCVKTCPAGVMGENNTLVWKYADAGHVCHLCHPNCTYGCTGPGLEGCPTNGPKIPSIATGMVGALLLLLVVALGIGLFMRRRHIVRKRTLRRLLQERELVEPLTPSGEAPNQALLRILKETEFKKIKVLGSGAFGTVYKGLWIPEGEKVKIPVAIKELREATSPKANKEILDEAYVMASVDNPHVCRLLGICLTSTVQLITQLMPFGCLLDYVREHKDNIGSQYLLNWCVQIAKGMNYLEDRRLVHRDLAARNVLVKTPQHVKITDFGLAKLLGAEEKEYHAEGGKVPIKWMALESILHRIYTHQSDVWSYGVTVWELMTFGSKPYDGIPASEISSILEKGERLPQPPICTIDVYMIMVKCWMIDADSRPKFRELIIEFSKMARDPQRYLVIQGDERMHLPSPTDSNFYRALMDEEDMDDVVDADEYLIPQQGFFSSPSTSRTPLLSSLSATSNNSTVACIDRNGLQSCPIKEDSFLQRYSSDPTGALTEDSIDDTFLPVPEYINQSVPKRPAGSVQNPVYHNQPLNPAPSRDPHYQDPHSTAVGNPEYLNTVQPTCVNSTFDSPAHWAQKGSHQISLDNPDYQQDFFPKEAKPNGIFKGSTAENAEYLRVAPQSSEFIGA
Chain of Sodium-dependent noradrenaline transporter (Homo sapiens) (P23975 whole entry): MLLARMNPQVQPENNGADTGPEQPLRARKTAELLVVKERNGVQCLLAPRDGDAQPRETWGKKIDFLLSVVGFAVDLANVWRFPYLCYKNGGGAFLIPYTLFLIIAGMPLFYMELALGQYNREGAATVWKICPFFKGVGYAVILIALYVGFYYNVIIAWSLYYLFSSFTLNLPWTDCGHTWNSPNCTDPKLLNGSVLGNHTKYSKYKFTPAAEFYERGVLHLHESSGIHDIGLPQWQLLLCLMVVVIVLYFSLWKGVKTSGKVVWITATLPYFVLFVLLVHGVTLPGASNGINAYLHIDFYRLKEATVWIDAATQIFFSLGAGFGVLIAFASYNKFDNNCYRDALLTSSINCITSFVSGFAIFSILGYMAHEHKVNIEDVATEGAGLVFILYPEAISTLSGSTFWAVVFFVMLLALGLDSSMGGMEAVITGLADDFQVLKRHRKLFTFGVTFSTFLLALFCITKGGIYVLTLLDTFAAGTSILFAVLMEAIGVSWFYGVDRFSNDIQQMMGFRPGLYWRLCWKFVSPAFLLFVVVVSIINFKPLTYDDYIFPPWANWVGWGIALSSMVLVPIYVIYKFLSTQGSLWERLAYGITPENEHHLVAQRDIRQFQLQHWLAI
Chain of Acetylcholinesterase (Homo sapiens) (P22303 whole entry): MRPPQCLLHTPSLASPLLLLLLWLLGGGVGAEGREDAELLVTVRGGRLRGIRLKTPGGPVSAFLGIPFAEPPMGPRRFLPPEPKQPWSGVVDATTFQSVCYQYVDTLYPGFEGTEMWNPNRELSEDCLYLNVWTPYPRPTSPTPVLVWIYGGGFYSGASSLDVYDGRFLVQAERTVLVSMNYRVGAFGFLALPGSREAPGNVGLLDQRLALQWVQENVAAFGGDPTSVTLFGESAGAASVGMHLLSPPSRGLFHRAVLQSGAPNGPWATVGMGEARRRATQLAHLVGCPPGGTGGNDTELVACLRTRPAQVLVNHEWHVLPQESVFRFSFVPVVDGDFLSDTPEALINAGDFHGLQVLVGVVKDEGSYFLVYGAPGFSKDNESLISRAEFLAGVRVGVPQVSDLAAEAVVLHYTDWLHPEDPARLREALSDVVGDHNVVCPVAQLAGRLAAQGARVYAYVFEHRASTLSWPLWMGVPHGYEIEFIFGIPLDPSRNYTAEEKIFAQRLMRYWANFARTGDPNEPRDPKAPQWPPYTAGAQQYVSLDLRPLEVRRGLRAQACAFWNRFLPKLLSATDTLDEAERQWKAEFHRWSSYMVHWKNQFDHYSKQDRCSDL

N#CC1(c2ccccn2)CCN(Cc2cc(C(=O)O)c(=O)n3ccccc23)CC1 [MSD-M1PAM]
inhibition at 60 min, 10 µM [1]: 4% (not active)
inhibition [2]: -8%
inhibition [3]: 8%
inhibition [4]: 1%
inhibition (Homo sapiens [5]): -2%
inhibition [6]: 10%
inhibition [7]: -7%
inhibition (Rattus norvegicus): -7%
inhibition [8]: 3%
inhibition [9]: 1%
inhibition [10]: -3%
inhibition [11]: 45%
inhibition (Homo sapiens [12]): -3%
inhibition [13]: 6%
inhibition (Homo sapiens [14]): 21%
inhibition (Caspase-7 (Homo sapiens)): 5%
inhibition [15]: 11%
inhibition [16]: -9%
inhibition [17]: 19%
inhibition [18]: 8%
inhibition [19]: 2%

N#CC1(c2ccccn2)CCN(Cc2cc(C(=O)N3CCCC3)c(=O)n3ccccc23)CC1
residual activity [20]: 73%
